Source: patent publication US20240425496A1, “AZETIDINYL PYRIMIDINES AND USES THEREOF” (Aerie Pharmaceuticals, Inc., priority 2021, published 2024)
pIC50: −log10 of the molar value.

Tests used:
[1] = molecular target: TYK2 (Homo sapiens (Human), UniProt P29597); assay: JAK kinase assay (KINASE-GLO luminescent), TYK2 enzyme; assay type: biochemical; conditions: TYK2 enzyme 10 nM, Abl peptide substrate
Description: (§1) All compounds were initially prepared as 10 mM stocks in anhydrous dimethylsulfoxide (DMSO). […] Test compounds were then serially diluted 1:5 in DMSO for an 11-point concentration response and further diluted in the assay buffer bringing all compound concentrations to a final range of 100 μM to 10 μM in 2.5% DMSO. […] The reaction was initiated by the addition of 10 μL of 4× stock solution ATP (2 μM). Reactions were thoroughly mixed manually, covered, and allowed to incubate at room temperature for 75 min. Protein kinase activity was quantitated using Promega's KINASE-GLO™ luminescent Kinase Assay Kit according to the manufacturer's directions. ATP concentrations remaining in Test wells following the termination of the enzymatic reaction were compared against control wells containing equivalent amounts of DMSO containing no inhibitor (CTRL). […] Percent of Control (POC) values were determined for each concentration of compound tested according to the equation: […]
(§2) IC50 values were calculated using the following 4-parameter logistic curve-fitting algorithm:
(§3) Compounds were prepared in the exact same manner as described in the ROCK Kinase Assay with the exception to the substrate and enzyme. […] All other steps and solutions remain identical to the ROCK Kinase Assay above.

[2] = molecular target: JAK1 (Homo sapiens (Human), UniProt P23458); assay: JAK kinase assay (KINASE-GLO luminescent), JAK1 enzyme; assay type: biochemical; conditions: JAK1 enzyme 10 nM, Abl peptide substrate
Description: as §1, §2, §3

Sequence of TYK2 (P29597 whole entry, species assumed): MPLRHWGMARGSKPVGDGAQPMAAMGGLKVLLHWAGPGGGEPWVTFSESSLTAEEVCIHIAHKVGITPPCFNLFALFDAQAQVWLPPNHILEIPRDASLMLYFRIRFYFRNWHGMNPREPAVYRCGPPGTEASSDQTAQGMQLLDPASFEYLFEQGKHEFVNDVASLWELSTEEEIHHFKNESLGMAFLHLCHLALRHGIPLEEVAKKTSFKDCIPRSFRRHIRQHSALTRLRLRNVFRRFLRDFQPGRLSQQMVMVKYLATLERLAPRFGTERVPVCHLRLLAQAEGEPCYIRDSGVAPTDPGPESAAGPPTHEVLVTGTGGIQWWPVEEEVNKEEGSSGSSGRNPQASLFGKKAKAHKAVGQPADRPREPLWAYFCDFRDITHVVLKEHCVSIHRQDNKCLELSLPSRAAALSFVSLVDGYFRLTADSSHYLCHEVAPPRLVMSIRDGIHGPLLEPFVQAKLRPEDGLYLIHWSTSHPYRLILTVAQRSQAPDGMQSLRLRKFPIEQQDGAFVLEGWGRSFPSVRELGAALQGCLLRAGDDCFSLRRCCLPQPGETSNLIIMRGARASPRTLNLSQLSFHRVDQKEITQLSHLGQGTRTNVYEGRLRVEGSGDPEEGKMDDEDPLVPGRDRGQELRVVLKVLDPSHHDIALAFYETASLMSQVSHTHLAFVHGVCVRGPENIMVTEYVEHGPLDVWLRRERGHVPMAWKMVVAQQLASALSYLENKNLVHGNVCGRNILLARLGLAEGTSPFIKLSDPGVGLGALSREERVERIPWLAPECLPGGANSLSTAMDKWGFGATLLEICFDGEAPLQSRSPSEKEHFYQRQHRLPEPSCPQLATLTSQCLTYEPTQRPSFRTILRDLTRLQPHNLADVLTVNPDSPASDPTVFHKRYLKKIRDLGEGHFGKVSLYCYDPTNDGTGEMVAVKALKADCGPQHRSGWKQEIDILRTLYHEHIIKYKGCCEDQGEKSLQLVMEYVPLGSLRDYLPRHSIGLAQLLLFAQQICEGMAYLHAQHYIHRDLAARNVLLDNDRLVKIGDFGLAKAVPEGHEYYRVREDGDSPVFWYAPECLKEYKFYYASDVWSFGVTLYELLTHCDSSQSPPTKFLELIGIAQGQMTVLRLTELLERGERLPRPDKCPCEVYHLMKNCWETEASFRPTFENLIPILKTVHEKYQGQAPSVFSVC
Sequence of JAK1 (P23458 whole entry, species assumed): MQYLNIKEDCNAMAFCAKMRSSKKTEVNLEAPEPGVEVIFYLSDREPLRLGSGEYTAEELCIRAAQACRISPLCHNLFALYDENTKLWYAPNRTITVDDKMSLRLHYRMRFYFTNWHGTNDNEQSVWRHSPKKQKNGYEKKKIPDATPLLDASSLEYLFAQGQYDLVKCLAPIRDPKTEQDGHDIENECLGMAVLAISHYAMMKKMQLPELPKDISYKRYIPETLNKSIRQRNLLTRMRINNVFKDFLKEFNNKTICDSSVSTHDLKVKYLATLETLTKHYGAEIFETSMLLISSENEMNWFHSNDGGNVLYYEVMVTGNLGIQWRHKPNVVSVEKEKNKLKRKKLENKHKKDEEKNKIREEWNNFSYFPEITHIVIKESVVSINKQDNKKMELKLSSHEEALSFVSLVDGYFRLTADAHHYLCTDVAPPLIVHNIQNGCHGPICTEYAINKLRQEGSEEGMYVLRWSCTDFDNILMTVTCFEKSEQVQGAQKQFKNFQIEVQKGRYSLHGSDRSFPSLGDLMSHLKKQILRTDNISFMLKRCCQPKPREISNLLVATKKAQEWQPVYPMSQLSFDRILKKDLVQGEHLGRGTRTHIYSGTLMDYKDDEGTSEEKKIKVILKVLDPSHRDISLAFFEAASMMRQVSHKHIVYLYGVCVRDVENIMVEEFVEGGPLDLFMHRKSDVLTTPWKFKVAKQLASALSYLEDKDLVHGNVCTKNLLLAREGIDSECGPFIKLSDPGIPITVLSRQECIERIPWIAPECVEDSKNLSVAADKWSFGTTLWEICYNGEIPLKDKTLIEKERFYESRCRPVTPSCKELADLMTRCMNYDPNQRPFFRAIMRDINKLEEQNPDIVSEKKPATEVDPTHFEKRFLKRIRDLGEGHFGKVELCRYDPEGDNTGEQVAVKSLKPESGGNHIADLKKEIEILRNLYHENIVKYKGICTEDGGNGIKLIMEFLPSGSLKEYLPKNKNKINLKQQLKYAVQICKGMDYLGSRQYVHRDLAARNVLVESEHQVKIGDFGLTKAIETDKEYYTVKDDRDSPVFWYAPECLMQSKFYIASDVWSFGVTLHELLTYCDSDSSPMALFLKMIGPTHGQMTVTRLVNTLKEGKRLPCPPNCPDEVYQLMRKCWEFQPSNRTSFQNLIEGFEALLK

SMILES	pIC50 [1]	pIC50 [2]
Cc1cc(Nc2ncc(C)c(N3CC(CC#N)(N4CCN(C)C(CCF)C4)C3)n2)sn1 (centres unmarked) [E117-R]	> 8.30	> 8.00
Cc1cnc(Nc2cc(CN(C)C)ns2)nc1N1CC(CC#N)(N2CCN3CCCC[C@H]3C2)C1 [E117-S]	> 8.00	> 7.60
Cc1cc(Nc2ncc(C)c(N3CC(CCC#N)C3)n2)sn1 [E117-T]	> 8.00	> 7.60
Cc1cc(Nc2ncc(C)c(N3CC(CC(F)F)C3)n2)sn1 [E117-U]	> 8.00	> 7.60
Cc1cc(Nc2ncc(C)c(N3C4CC3CN(CC#N)C4)n2)sn1 [E117-V]	> 7.30	> 7.30
Cc1cc(Nc2ncc(C)c(N3CC(=CC#N)C3)n2)sn1 [E117-X]	> 7.12	> 7.12
Cc1cc(Nc2ncc(C)c(N3CC(CC#N)(CN4CCN5C[C@H](F)C[C@H]5C4)C3)n2)sn1 [E117-Y]	> 7.30	> 7.00
Cc1cnc(Nc2cccnc2)nc1N1CC(CC#N)(N2CCN(C)CC2)C1 [E117]	> 7.70	> 7.30
Cc1cc(Nc2ncc(C)c(N3CC(CC#N)(N4CCN5C[C@H](C)C[C@H]5C4)C3)n2)sn1 [E117a]	> 8.00	> 7.30
Cc1cnc(Nc2ccc(N3CCOCC3)cc2)nc1N1CC(CC#N)(N2CCN(C)CC2)C1 [E118]	> 8.00	> 7.30
Cc1cnc(Nc2ccc3c(c2)CN(C)C3)nc1N1CC(CC#N)(N2CCC(F)(F)CC2)C1 [E119-A]	> 8.00	> 8.00
Cc1cnc(Nc2ccc(N3CCOCC3)c(F)c2)nc1N1CC(CC#N)(N2CCCCC2)C1 [E119]	> 8.00	> 7.60
Cc1cnc(Nc2cnn(C)c2)nc1N1CC(CC#N)(N2CCN3C[C@H](F)C[C@H]3C2)C1 [E152a, 2-(3-((7R,8aS)-7-fluorohexahydropyrrolo[1,2-a]pyrazin-2(1H)-yl)-1-(5-methyl-2-((1-methyl-1H-pyrazol-4-yl)amino)pyrimidin-4-yl)azetidin-3-yl)acetonitrile]	> 8.00	> 8.00
[2H]C([2H])([2H])n1cc(Nc2ncc(C)c(N3CC(CC#N)(N4CCN5C[C@H](F)C[C@H]5C4)C3)n2)cn1 [E156a]	> 8.00	> 8.00
Cc1cnc(Nc2cnn(C)c2)nc1N1CC(CC#N)(N2CCN3CC(F)(F)C[C@H]3C2)C1 [E157a]	> 8.00	> 8.00
Cc1cnc(Nc2cnn(C)c2)nc1N1CC(CC#N)(N2CCN3CCCC[C@@H]3C2)C1 [E159a]	> 7.00	> 6.92
Cc1cnc(Nc2cnn(C)c2)nc1N1CC(CC#N)(N2CCC3C(CC2)C3(F)F)C1 (centres unmarked) [E160a]	> 8.00	> 8.00
Cc1cnc(Nc2cnn(C)c2)nc1N1CC(CC#N)(N2CC3(C2)CC3(F)F)C1 [E161a]	> 7.70	> 7.70
Cc1cnc(Nc2cnn(C)c2)nc1N1CC(CC#N)(N2CCN3CCC[C@H]3C2)C1 [E162a]	> 7.30	> 7.30
Cn1cc(Nc2ncc(Cl)c(N3CC(CC#N)(N4CCN5C[C@H](F)C[C@H]5C4)C3)n2)cn1 [E163a]	> 8.00	> 8.00
Cc1cnc(Nc2cnn(C)c2)nc1N1CC(CC#N)(N2CCn3cccc3C2)C1 [E164a]	> 8.00	> 8.00
Cc1cnc(Nc2cnn(C)c2)nc1N1CC(CC(F)F)(C2CC2)C1 [E165a]	> 8.00	> 8.00
COC(=O)CC1(N2CCN3C[C@H](F)C[C@H]3C2)CN(c2nc(Nc3cnn(C)c3)ncc2C)C1 [E166a]	> 6.70	> 6.00
Cc1cnc(Nc2cnn(C)c2)nc1N1CC(CCO)(N2CCN3C[C@H](F)C[C@H]3C2)C1 [E167a]	> 7.30	> 7.30
Cc1cnc(Nc2cnn(C)c2)nc1N1CC(CCC#N)(N2CCN3C[C@H](F)C[C@H]3C2)C1 [E168a]	> 7.70	> 7.70

SMILES	pIC50 [1]	pIC50 [2]
Cc1cnc(Nc2cnn(C)c2)nc1N1CC(N2CCN3C[C@H](F)C[C@H]3C2)C1 [E169a]	> 6.92	> 6.60
CCC1(N2CCN3C[C@H](F)C[C@H]3C2)CN(c2nc(Nc3cnn(C)c3)ncc2C)C1 [E170a]	> 7.00	> 7.30
Cc1cnc(Nc2cnn(C)c2)nc1N1CC(CC#N)(N2CCN3CCCC[C@H]3C2)C1 [E171a]	> 8.00	> 8.00
Cc1cnc(Nc2cnn(C)c2)nc1N1CC(CC#N)(N2CC3(C2)CC(F)(F)CO3)C1 [E172a]	> 7.00	> 7.00
Cc1cnc(Nc2cnn(C)c2)nc1N1CC(CC#N)(N2CCN3CC(C)(C)C[C@H]3C2)C1 [E173a]	> 8.00	> 8.00
Cc1cnc(Nc2cnn(C)c2)nc1N1CC(=CC#N)C1 [E174a]	> 6.70	> 7.00
Cc1cnc(Nc2cnn(C)c2)nc1N1CC(O)(CF)C1 [E175-A]	> 6.92	> 7.00
Cc1cnc(Nc2cnn(C)c2)nc1N1CC(O)(CC2CC2)C1 [E175-B]	> 6.70	> 6.70
Cc1cnc(Nc2cnn(C3CC3)c2)nc1N1CC(CC#N)(N2CCN3C[C@H](F)C[C@H]3C2)C1 [E175-C]	> 8.00	> 8.00
COCCN1CCN(C2(CC#N)CN(c3nc(Nc4cnn(CCOC)c4)ncc3C)C2)CC1 [E175-D]	> 6.92	> 6.92
COCCN1CCN(C2(CC#N)CN(c3nc(Nc4cnn(CCOC)c4)ncc3C)C2)CC1 [E175-E]	> 6.70	> 6.70
Cc1cnc(Nc2cnn(C)c2)nc1N1CC(CC#N)(N2CCN3C[C@H](C)C[C@H]3C2)C1 [E175a]	> 7.30	> 7.30
Cc1cnc(Nc2ccc(N3CCN(C)CC3)cc2)nc1N1CC(CC#N)(N(C)C2CC2)C1 [E213]	> 8.00	> 7.30
Cc1cnc(Nc2ccc3c(c2)CN(C)C3)nc1N1CC(CC(F)F)(C2CC2)C1 [E216-A]	> 8.00	> 8.00
Cc1cnc(Nc2ccc(S(C)(=O)=O)cc2)nc1N1CC(CC(F)F)(C2CC2)C1 [E216-B]	> 8.00	> 8.00
Cc1cnc(Nc2ccc3c(c2)CN(C)C3)nc1N1CC(CC#N)(N(C)C2CC2)C1 [E216-C]	> 8.00	> 8.00
Cc1cnc(Nc2ccc3c(c2)CN(C)C3)nc1N1CC(CC#N)(N2CCC(F)CC2)C1 [E216-E]	> 8.00	> 8.00
Cc1cnc(Nc2ccccc2)nc1N1CC(CC#N)(N2CCN3CCCC[C@H]3C2)C1 [E216-F]	> 8.00	> 7.70
Cc1cnc(Nc2ccc3c(c2)CN(C)C3)nc1N1CC(CC#N)(N2CCC3(CC2)COC3)C1 [E216-G]	> 8.00	> 8.00
Cc1cnc(Nc2ccc(N3CCOCC3)c(F)c2)nc1N1CC(CCC#N)C1 [E216-K]	> 8.00	> 7.30
Cc1cnc(Nc2ccc(C3COC3)cc2)nc1N1CC(CC#N)(N2CCN(C)CC2)C1 [E216-L]	> 7.70	> 7.30
Cc1cnc(Nc2ccccc2)nc1N1CC(CC#N)(N2CCN(C)CC2)C1 [E216-N]	> 7.52	> 7.15
Cc1cnc(Nc2ccc3c(c2)B(O)OC3)nc1N1CC(CC#N)(N2CCN3C[C@H](F)C[C@H]3C2)C1 [E216-O]	> 7.52	> 6.92
Cc1cnc(Nc2ccc(N3CCOCC3)nc2)nc1N1CC(CCC#N)C1 [E216-S]	> 7.00	> 7.00
